# Measured values as given in patent US12472231B2 (priority 2020, dated 2025).
# Where a SMILES comes first, the peptide text is derived from it.
# Assays:
# SARS-CoV-2 [1] = test system: SARS-CoV-2
# A(H1N1)pdm09 virus [2] = type: cell-based
# [3] = test system: endosomal acidification in MDCK cells; type: cell-based, canine
# [4] = test system: virus-host endosomal acidification; type: cell-based
# SARS-CoV-2 [5] = type: binding
# A(H1N1)pdm09 virus [6] = type: binding
# MERS-CoV [7] = type: binding
# A(H7N9) virus [8] = type: binding
# rhinovirus [9] = type: binding; settings: peptide coated on ELISA plate, bound virus by RT-qPCR
# SARS-CoV [10] = type: binding
# MERS-CoV [11] = test system: MERS-CoV
# A(H7N9) virus [12] = test system: A(H7N9) virus
# rhinovirus [13] = test system: rhinovirus
# SARS-CoV-2 [14] = test system: SARS-CoV-2; remark: listed apart in the source
# MERS-CoV [15] = test system: MERS-CoV; remark: listed apart in the source
# SARS-CoV [16] = test system: SARS-CoV
# A(H1N1)pdm09 virus [17] = test system: A(H1N1)pdm09 virus
# A(H7N9) virus [18] = test system: A(H7N9) virus; remark: listed apart in the source
# rhinovirus [19] = test system: rhinovirus; remark: listed apart in the source
# H1N1 HA1 protein = H1N1 HA1 protein (Influenza A virus, UniProt C3W5S1)
# Sequence of H1N1 HA1 protein (C3W5S1 18-344 limits assumed): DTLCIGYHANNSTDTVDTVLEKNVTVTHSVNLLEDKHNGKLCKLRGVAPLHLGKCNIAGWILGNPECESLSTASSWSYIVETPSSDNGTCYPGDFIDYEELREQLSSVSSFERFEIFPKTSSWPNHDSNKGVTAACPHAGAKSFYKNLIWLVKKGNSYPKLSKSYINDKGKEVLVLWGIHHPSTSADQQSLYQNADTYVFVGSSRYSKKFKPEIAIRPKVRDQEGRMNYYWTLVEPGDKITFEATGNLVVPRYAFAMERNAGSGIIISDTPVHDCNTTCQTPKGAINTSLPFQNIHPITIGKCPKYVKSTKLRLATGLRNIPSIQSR
# MERS-CoV S protein = MERS-CoV S protein (Middle East respiratory syndrome-related coronavirus, UniProt K9N5Q8)
# Sequence of MERS-CoV S protein (K9N5Q8 18-1353 limits assumed): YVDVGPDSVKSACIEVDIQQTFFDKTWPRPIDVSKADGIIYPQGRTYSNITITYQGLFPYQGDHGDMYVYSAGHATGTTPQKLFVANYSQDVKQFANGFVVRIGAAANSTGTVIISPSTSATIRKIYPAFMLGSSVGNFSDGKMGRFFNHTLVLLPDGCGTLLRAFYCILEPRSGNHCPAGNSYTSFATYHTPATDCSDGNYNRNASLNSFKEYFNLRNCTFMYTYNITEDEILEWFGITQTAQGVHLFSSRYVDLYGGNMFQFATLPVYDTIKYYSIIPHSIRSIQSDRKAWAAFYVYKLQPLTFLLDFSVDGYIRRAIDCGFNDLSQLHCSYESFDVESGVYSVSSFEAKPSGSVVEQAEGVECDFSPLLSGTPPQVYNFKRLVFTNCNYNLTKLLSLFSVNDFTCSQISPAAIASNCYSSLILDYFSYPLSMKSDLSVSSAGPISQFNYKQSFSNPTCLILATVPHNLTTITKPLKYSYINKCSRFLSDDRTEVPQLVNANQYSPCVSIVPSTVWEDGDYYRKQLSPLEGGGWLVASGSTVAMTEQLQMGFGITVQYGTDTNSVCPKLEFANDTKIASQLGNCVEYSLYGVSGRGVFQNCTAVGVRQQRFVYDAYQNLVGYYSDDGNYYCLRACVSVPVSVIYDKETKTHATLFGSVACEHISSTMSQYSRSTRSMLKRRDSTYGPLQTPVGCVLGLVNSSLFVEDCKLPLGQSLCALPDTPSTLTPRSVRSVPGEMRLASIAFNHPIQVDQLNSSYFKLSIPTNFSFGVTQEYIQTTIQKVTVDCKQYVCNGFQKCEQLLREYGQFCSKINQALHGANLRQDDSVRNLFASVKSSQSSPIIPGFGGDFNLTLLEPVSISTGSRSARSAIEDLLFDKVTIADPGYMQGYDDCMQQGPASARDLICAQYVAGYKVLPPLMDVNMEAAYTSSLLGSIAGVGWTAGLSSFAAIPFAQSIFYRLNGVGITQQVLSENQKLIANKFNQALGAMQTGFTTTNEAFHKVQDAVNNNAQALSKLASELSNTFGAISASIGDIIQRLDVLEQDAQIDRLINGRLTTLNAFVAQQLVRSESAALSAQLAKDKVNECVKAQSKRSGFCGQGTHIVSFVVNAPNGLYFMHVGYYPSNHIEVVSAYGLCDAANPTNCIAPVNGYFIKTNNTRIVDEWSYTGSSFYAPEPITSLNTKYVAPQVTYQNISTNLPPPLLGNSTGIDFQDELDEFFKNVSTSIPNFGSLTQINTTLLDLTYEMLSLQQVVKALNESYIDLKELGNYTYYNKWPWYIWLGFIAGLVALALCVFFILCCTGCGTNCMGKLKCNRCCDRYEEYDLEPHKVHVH
# [20] = test system: A(H1N1)pdm09 virus RNP release in MDCK cells
smiles,measurement,setting,value
"CC[C@H](C)[C@H](NC(=O)[C@H](C)NC(=O)CNC(=O)[C@@H](N)CC(N)=O)C(=O)N[C@@H](CS)C(=O)N[C@@H](Cc1c[nH]c2ccccc12)C(=O)NCC(=O)N1CCC[C@H]1C(=O)N[C@@H](CS)C(=O)N1CCC[C@H]1C(=O)N[C@H](C(=O)N[C@@H](C)C(=O)N[C@@H](Cc1ccccc1)C(=O)N[C@@H](CCCNC(=N)N)C(=O)N[C@@H](CCC(N)=O)C(=O)N[C@H](C(=O)NCC(=O)N[C@@H](CC(N)=O)C(=O)N[C@@H](CS)C(=O)NCC(=O)N[C@@H](Cc1c[nH]cn1)C(=O)N[C@@H](Cc1ccccc1)C(=O)N[C@@H](CCCCN)C(=O)N[C@H](C(=O)N[C@@H](CCCNC(=N)N)C(=O)N[C@@H](CS)C(=O)N[C@@H](CS)C(=O)N[C@@H](CCCCN)C(=O)N[C@H](C(=O)N[C@@H](CCCNC(=N)N)C(=O)O)[C@@H](C)CC)C(C)C)[C@@H](C)CC)[C@@H](C)O [P9, reference compound]",IC50 against SARS-CoV-2,SARS-CoV-2 [1],2.4 µg/mL
same,IC50 against parainfluenza virus 3,parainfluenza virus 3,> 25.0 µg/mL
CC[C@H](C)[C@H](NC(=O)[C@H](C)NC(=O)CNC(=O)[C@@H](N)CC(N)=O)C(=O)N[C@@H](CS)C(=O)N[C@@H](Cc1c[nH]c2ccccc12)C(=O)NCC(=O)N1CCC[C@H]1C(=O)N[C@@H](CS)C(=O)N1CCC[C@H]1C(=O)N[C@H](C(=O)N[C@@H](C)C(=O)N[C@@H](Cc1ccccc1)C(=O)N[C@@H](CCCNC(=N)N)C(=O)N[C@@H](CCC(N)=O)C(=O)N[C@H](C(=O)NCC(=O)N[C@@H](CC(N)=O)C(=O)N[C@@H](CS)C(=O)NCC(=O)N[C@@H](CCCNC(=N)N)C(=O)N[C@@H](Cc1ccccc1)C(=O)N[C@@H](CCCNC(=N)N)C(=O)N[C@H](C(=O)N[C@@H](CCCNC(=N)N)C(=O)N[C@@H](CS)C(=O)N[C@@H](CS)C(=O)N[C@@H](CCCNC(=N)N)C(=O)N[C@H](C(=O)N[C@@H](CCCNC(=N)N)C(=O)O)[C@@H](C)CC)C(C)C)[C@@H](C)CC)[C@@H](C)O [P9R] (H-NGAICWGPCPTAFRQIGNCGRFRVRCCRIR-OH),inhibition against A(H1N1)pdm09 virus compared with P9,A(H1N1)pdm09 virus [2],significantly stronger inhibition
same,inhibition of endosomal acidification in live cells,[3],could more significantly inhibit endosomal acidification
same,inhibition of virus-host endosomal acidification,[4],could efficiently inhibit the virus-host endosomal acidification
same,binding to SARS-CoV-2,SARS-CoV-2 [5],could efficiently bind
same,binding to A(H1N1)pdm09 virus,A(H1N1)pdm09 virus [6],could efficiently bind
same,binding to MERS-CoV,MERS-CoV [7],could also bind
same,binding to A(H7N9) virus,A(H7N9) virus [8],could also bind
same,binding to rhinovirus,rhinovirus [9],could also bind
same,binding to SARS-CoV,SARS-CoV [10],could also bind
same,IC50 against SARS-CoV-2,SARS-CoV-2 [1],0.9 µg/mL
same,IC50 against parainfluenza virus 3,parainfluenza virus 3,> 25.0 µg/mL
same,inhibition against MERS-CoV compared with P9,MERS-CoV [11],significantly stronger inhibition
same,inhibition against A(H7N9) virus compared with P9,A(H7N9) virus [12],significantly stronger inhibition
same,inhibition against rhinovirus compared with P9,rhinovirus [13],significantly stronger inhibition
same,inhibition of viral replication (viral RNA copies in supernatants),SARS-CoV-2 [14],1000 fold
same,inhibition of viral replication (viral RNA copies in supernatants),MERS-CoV [15],1000 fold
same,inhibition of viral replication (viral RNA copies in supernatants),SARS-CoV [16],1000 fold
same,inhibition of viral replication (viral RNA copies in supernatants),A(H1N1)pdm09 virus [17],> 20 fold
same,inhibition of viral replication (viral RNA copies in supernatants),A(H7N9) virus [18],> 20 fold
same,inhibition of viral replication (viral RNA copies in supernatants),rhinovirus [19],> 20 fold
same,binding to viral protein H1N1 HA1,H1N1 HA1 protein,could also bind
same,binding to viral protein MERS-CoV S,MERS-CoV S protein,could also bind
same,inhibition of viral RNP release into nuclei,[20],could inhibit viral RNP release into nuclei
"CO/C1=C\C(C)=C\[C@@H](C)[C@@H](O)[C@@H](C)C/C(C)=C/C=C/[C@H](OC)[C@@H]([C@@H](C)[C@@H](O)[C@H](C)[C@@]2(O)C[C@@H](O)[C@H](C)[C@@H](C(C)C)O2)OC1=O [bafilomycin A1, reference compound]",inhibition of virus-host endosomal acidification,[4],could efficiently inhibit the virus-host endosomal acidification
